Test results as given in patent US6921531B2, “Administering bifunctional molecules containing a drug moiety and presenter protein ligand for therapy” (The Board of Trustees of the Leland Stanford Junior …, priority 1998, dated 2005).
Where two headings read alike, the source gives them in different places.

Assays:
[1] = molecular target: alkaline phosphatase (Eel Intestine) (Anguilla anguilla, UniProt A0A9D3RXU0); experiment: Alkaline phosphatase inhibition, Eel Intestine isoform; assay type: biochemical; conditions: 100 μM human serum albumin vs none
alkaline phosphatase (Eel Intestine), sequence (A0A9D3RXU0 entry or part of it): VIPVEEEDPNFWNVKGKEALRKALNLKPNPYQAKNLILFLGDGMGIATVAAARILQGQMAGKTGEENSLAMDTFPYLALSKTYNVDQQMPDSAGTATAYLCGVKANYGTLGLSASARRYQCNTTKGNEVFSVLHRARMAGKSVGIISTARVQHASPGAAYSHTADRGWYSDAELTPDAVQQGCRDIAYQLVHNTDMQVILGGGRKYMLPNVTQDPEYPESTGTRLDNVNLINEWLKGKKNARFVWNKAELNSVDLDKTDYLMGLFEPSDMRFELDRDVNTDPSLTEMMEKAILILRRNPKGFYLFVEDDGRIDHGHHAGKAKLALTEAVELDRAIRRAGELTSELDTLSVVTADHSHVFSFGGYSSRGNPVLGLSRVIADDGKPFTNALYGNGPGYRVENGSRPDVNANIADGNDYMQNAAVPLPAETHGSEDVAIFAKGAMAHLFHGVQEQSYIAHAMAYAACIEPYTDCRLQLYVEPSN
Experimental: (§1) Reactions were conducted in 200 mM diethanolamine buffer, pH 10, with methylumbeliferal phosphate as the substrate. The reaction was monitored by recording fluorescence of the hydrolysis product (excitation at 355 nm, fluorescence at […]), and the first 10% of the reaction was used to determine the rate of the reaction.
(§2) In the presence of 100 μM human serum albumin, compound 1 was seen to be a better inhibitor for four of the enzymes tested relative to the inhibition seen in the absence of albumin.

[2] = molecular target: alkaline phosphatase (Bacteria) (Escherichia coli, UniProt P00634); experiment: Alkaline phosphatase inhibition, Bacteria isoform; assay type: biochemical
alkaline phosphatase (Bacteria), sequence (P00634 22-471): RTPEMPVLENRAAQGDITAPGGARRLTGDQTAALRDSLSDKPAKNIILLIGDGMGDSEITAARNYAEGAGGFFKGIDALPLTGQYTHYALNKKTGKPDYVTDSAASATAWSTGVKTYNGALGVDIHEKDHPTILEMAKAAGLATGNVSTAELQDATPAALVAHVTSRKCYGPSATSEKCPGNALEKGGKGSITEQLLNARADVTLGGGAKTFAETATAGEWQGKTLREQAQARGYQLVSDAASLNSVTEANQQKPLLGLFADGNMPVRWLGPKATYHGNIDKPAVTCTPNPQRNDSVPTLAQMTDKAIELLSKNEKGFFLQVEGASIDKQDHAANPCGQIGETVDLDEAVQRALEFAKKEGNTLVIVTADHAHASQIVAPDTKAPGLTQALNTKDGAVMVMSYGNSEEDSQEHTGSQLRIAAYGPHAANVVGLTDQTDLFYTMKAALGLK
Experimental: as §1, §2

[3] = molecular target: T1, alkaline phosphatase (Human Placenta) (Homo sapiens, UniProt P05187); experiment: Alkaline phosphatase inhibition, Human Placenta isoform; assay type: biochemical; conditions: for IC50: Human Placenta, pH 10
T1 construct: roughly 2-fold for the eel intestine and human placenta isoforms of the enzyme; from tissue; host or cells: human placenta
T1 sequence (P05187 23-506): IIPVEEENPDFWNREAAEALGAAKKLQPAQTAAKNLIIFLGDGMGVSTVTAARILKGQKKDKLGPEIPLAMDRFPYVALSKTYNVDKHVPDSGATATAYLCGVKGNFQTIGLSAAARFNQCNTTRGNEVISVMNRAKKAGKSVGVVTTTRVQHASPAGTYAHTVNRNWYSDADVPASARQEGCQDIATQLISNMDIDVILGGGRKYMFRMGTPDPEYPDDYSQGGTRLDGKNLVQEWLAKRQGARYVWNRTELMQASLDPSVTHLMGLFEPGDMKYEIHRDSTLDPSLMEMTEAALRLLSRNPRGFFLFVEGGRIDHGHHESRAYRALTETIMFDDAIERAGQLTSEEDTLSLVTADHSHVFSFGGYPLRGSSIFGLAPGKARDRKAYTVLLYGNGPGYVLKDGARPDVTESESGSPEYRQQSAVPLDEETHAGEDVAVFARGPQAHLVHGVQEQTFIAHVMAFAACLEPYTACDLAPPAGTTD
Experimental: as §1, §2

[4] = molecular target: T2, alkaline phosphatase (Porcine Kidney) (Sus scrofa, UniProt A0A4X1W3F8); experiment: Alkaline phosphatase inhibition, Porcine Kidney isoform; assay type: biochemical
T2 sequence (A0A4X1W3F8 1-524): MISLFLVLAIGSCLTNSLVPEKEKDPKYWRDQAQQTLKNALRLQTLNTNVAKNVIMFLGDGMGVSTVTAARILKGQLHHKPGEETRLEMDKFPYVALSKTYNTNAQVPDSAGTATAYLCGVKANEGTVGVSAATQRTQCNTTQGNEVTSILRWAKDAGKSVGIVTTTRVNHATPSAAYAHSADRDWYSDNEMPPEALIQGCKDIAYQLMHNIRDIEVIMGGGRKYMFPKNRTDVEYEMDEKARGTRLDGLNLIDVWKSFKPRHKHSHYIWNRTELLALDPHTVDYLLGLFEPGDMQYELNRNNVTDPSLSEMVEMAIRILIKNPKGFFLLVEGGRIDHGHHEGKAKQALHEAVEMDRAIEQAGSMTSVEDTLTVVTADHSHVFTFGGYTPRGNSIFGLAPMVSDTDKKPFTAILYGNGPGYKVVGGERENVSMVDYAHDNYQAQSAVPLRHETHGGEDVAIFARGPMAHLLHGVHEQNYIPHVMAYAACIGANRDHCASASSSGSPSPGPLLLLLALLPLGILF
Experimental: as §1, §2

[5] = molecular target: T3, alkaline phosphatase (Bovine Milk) (Bos taurus, UniProt P09487); experiment: Alkaline phosphatase inhibition, Bovine Milk isoform; assay type: biochemical
T3 construct: Bovine Milk; from tissue; host or cells: bovine milk
T3 sequence (P09487 18-499): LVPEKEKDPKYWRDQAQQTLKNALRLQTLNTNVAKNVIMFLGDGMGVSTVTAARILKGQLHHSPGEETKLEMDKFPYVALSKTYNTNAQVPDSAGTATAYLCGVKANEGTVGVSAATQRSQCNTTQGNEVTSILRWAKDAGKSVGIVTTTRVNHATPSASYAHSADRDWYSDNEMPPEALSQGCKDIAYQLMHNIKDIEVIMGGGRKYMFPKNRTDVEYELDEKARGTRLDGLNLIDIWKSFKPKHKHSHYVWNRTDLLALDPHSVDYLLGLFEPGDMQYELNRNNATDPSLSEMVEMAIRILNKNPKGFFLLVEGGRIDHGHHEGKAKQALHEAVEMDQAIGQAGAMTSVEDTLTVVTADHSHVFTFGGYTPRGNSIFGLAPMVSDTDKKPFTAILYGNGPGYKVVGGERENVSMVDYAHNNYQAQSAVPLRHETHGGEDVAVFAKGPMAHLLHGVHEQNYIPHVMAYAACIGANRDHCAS
Experimental: as §1, §2

[6] = molecular target: alkaline phosphatase (Shrimp) (Pandalus borealis, UniProt Q9BHT8); experiment: Alkaline phosphatase inhibition, Shrimp isoform; assay type: biochemical; conditions: Shrimp, pH 10
alkaline phosphatase (Shrimp) (Pandalus borealis, UniProt Q9BHT8), sequence (Q9BHT8 entry or part of it): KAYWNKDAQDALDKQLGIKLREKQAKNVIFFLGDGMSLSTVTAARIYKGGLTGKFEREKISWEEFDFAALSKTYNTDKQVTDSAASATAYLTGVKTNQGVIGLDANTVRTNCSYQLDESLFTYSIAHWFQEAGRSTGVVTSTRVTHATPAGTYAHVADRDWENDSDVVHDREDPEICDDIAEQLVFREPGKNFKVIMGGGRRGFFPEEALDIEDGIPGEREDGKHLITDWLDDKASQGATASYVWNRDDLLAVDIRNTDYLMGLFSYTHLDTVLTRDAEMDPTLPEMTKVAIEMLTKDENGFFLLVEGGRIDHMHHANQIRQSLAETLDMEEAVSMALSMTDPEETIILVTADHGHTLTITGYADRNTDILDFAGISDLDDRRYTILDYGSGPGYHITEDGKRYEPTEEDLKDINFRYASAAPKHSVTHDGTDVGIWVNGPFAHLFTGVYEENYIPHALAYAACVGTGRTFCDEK
Experimental: as §1, §2

[7] = test system: alkaline phosphatase (Shrimp); experiment: Alkaline phosphatase inhibition, Shrimp isoform; assay type: biochemical; conditions: shrimp isoform; 100 μM human serum albumin vs none
Experimental: as §1, §2

[8] = molecular target: alkaline phosphatase (Dog Intestine) (Canis lupus familiaris, UniProt A0A8C0LCK3); experiment: Alkaline phosphatase inhibition, Dog Intestine isoform; assay type: biochemical
alkaline phosphatase (Dog Intestine), sequence (A0A8C0LCK3 23-522): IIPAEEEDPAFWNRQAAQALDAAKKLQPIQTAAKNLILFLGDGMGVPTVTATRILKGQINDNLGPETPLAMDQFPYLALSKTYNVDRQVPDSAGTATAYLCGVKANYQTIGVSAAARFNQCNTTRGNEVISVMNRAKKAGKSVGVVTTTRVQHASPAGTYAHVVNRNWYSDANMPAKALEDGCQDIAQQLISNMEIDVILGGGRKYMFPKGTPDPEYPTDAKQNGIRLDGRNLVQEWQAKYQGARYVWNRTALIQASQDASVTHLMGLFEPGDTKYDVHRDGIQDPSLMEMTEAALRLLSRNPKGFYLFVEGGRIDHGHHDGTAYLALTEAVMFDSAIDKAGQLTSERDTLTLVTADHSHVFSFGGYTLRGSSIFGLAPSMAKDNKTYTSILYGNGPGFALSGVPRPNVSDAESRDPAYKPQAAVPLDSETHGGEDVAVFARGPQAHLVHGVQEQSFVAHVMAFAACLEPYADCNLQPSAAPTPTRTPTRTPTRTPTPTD
Experimental: as §1, §2

[9] = molecular target: alkaline phosphatase (Rabbit Intestine) (Oryctolagus cuniculus, UniProt G1SXE4); experiment: Alkaline phosphatase inhibition, Rabbit Intestine isoform; assay type: biochemical; conditions: 100 μM human serum albumin vs none
alkaline phosphatase (Rabbit Intestine), sequence (G1SXE4 25-504): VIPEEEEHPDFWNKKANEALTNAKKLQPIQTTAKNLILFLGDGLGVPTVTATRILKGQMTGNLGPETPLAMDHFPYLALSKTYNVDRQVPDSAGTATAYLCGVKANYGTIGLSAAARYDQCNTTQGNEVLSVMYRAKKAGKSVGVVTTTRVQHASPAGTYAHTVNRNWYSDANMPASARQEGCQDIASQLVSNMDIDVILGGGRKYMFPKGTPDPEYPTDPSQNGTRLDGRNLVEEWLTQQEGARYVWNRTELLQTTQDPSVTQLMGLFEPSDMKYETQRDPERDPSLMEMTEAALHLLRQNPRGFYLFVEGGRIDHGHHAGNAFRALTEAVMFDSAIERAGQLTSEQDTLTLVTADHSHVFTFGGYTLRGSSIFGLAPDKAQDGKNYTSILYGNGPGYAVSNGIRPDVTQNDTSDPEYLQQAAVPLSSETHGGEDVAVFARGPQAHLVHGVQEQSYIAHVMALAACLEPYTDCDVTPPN
Experimental: as §1, §2

[10] = molecular target: T4, Fyn SH2 domain (Homo sapiens, UniProt P06241); experiment: Competition binding assay of radioactive Fyn SH2 domain to pYEEI beads
T4 construct: The Fyn, Lck and PLC SH2 domains were expressed in bacteria as GST fusion proteins; GST (cleaved yes); made in house; host or cells: bacteria
T4 sequence (P06241 149-246 limits assumed): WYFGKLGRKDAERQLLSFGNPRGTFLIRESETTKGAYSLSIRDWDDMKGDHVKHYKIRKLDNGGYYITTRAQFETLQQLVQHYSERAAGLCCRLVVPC
Excerpt: (§3) The pYEEI peptide was coupled to Affi-Gel 10 beads (Biorad) via its amino-group. The Fyn, Lck and PLC SH2 domains were expressed in bacteria as GST fusion proteins. The linker between the GST protein and the SH2 domain contained a thrombin cleavage site and a protein kinase A (PKA) phosphorylation site. The fusion protein on glutathione beads was radioactively labeled at the PKA phosphorylation site using PKA (Sigma). After extensive washing of the beads, the radioactive SH2 domain was released by cleavage with thrombin (Sigma). In a typical binding assay, 7.5 L of a 1:1 peptide bead slurry were incubated with the radioactive SH2 domain (200 nM) for 2 hours in 100 L of binding buffer (20 mM Tris pH7.2; 150 mM NaCl). In order to separate the radioactive protein bound to the beads, the binding reaction was transfered into a PCR tube (USA Scientific Plastic), whose bottom had been punctured with a 26gauge needle. The PCR tube was placed in a 0.5 mL Eppendorf tube which in turn was placed in a regular 1.5 mL Eppendorf tube. The tubes were spun for 1 second at maximal speed in an Eppendorf centrifuge resulting in the separation of the beads remaining in the PCR tube and the supernatant, which was collected in the 0.5 ml Eppendorf tube. The beads were resuspended in […] PBS and the radioactivity was counted in a liquid scintillation counter after addition of 3 ml scintillation fluid. The radioactivity remaining in the 100 L supernatant was counted in the same way. It was determined that under the conditions described 65% Fyn, 25% PLC and 15%Lck SH2 domain were bound to the beads. By increasing the amount of beads, up to 80% Fyn, 40% PLC and 25% Lck could be bound. These amounts reflect the active fraction of SH2 domains in the different protein preparations.
In order to determine the relative affinity of the SH2 domains for FKpYEEI or SLFpYEEI alone and FKpYEEI or SLFpYEEI bound to FKBP12 and FKBP52, the following competition assay was used. Radioactive SH2 domains were incubated with pYEEI peptide beads and FKpYEEI or SLFpYEEI in the presence or absence of the respective FKBP proteins. FKpYEEI and FKpYEEI/FKBP as well as SLFpYEEI and SLFpYEEI/FKBP compete for binding of the SH2 domains with the peptide beads. The higher the affinity of the FKpYEEI or SLFpYEEI ligand in the supernatant, the less SH2 domain is bound to the peptide beads (FIG. 3).
Using the competition binding assay described above, FKpYEEI was added to peptide beads and the Fyn SH2 domain in the presence of increasing concentrations of FKBP52 (FIG. 4). In this assay, in 100 L binding reactions, radioactively labeled Fyn SH2 domain (200 nM) was incubated with 7.5 L of a 1:1 pYEEI bead slurry. No FKpYEEI, 1.0 M FKpYEEI or 1.0 M FKpYEEI plus increasing concentrations of FKBP52 (0.25-4.0 M) were added. The binding reactions were rotated at room temperature for 2 hours. The supernatant was separated from the beads by spinning the binding reactions in punctured PCR tubes for 1 sec in an Eppendorf centrifuge at maximal speed. The beads were resuspended in 100 1 PBS and the radioactivity bound to the beads was counted in a liquid scintillation vial for 30 sec. The radioactivity bound to the beads in the presence of only the Fyn SH2 domain was plotted as 100% of maximal Fyn SH2 domain binding to pYEEI beads. The radioactivity bound in the presence of FKpYEEI and FKBP52 was calculated as the percentage of maximal Fyn SH2 domain binding. Every binding reaction was done in triplicate. The data points reflect the average of the three binding reactions. The error bars indicate the standard error.
In this assay, in 100 L binding reactions, radioactively labeled Fyn SH2 domain (200 nM) was incubated with 7.5 L of a 1:1 pYEEI bead slurry. […] The binding reactions were rotated at room temperature for 2 hours, centrifuged and analysed as described above. […]

[11] = test system: PLC SH2 domain; experiment: Competition binding assay of radioactive PLC SH2 domain to pYEEI beads; conditions: FKpYEEI 1.5 M plus FKBP12 2.0 M plus FK506 1.0-5.0 M
Excerpt: as §3, with “By increasing the amount of beads, up to 80% Fyn, 40% PLC and 25% Lck could be bound. These amounts reflect the active fraction of SH2 domains in the different protein preparations.” left out
The binary complex of FKpYEEI and FKBP 12 has the same affinity for the Fyn SH2 domain as free FKpYEEI (see FIG. 7). […] The binding reactions were rotated at room temperature for 2 hours, centrifuged and analysed as described above.
In this assay, in 100 L binding reactions, radioactively labeled PLC SH2 domain (400 nM) was incubated with 7.5 L of a 1:1 pYEEI bead slurry. […] The binding reactions were rotated at room temperature for 2 hours, centrifuged and analysed as described above. […]

[12] = molecular target: alkaline phosphatase; conditions: known inhibitor; cited from earlier work
[13] = molecular target: albumin (Homo sapiens, UniProt P02768); conditions: known ligand; read-out: IC50 as ligand for albumin; cited from earlier work
albumin, sequence (P02768 25-609): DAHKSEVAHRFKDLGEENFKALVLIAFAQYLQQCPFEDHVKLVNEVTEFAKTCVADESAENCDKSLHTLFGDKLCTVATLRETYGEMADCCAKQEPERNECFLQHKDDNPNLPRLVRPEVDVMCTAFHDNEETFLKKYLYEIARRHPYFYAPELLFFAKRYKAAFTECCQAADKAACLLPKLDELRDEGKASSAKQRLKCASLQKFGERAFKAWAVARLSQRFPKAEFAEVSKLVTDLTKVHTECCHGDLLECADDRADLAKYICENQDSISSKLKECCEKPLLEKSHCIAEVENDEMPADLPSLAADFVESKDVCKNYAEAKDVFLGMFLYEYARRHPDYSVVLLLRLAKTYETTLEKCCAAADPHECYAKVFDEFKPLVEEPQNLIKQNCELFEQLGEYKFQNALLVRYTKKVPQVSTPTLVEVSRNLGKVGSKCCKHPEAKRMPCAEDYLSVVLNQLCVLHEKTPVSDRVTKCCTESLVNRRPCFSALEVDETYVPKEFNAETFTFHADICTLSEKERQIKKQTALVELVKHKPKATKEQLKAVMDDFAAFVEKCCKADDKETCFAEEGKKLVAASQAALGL

[14] = 100 μM human serum albumin, pH 10, read-out: IC50 (100 μM albumin)
[15] = no albumin, pH 10, read-out: IC50 (no albumin)

CC(C)(S)C(N)C(=O)NCC(=O)Nc1ccc(C(=O)O)c(O)c1 (stereo not drawn) [Compound 1]
Decrease of IC50 in the presence of albumin [1]: roughly 2 fold | IC50 [2]: 50 µM | IC50 ([2]; read-out: IC50 (100 μM albumin), Bacteria, 100 μM human serum albumin, pH 10): 50 µM | IC50 ([3]; 100 μM human serum albumin, read-out: IC50 (100 μM albumin)): 45 µM | IC50 ([3]; no albumin, read-out: IC50 (no albumin)): 300 µM | Decrease of IC50 in the presence of albumin ([3]; human placenta isoform, 100 μM human serum albumin vs none): roughly 2 fold | IC50 [4, 14]: 50 µM | IC50 [4, 15]: 50 µM | IC50 [5, 14]: 50 µM | IC50 [5, 15]: 50 µM | IC50 ([6]; IC50 (100 μM albumin), 100 μM human serum albumin): 80 µM | IC50 ([6]; IC50 (no albumin), no albumin): 3000 µM | Decrease of IC50 in the presence of albumin [7]: roughly 12 fold | IC50 ([8]; read-out: IC50 (100 μM albumin), 100 μM human serum albumin, pH 10): 20 µM | IC50 ([8]; read-out: IC50 (no albumin), no albumin, pH 10): 20 µM | Decrease of IC50 in the presence of albumin [9]: roughly 12 fold

C=CC[C@@H]1/C=C(\C)C[C@H](C)C[C@H](OC)[C@H]2O[C@@](O)(C(=O)C(=O)N3CCCC[C@H]3C(=O)O[C@H](/C(C)=C/[C@@H]3CC[C@@H](O)[C@H](OC)C3)[C@H](C)[C@@H](O)CC1=O)[C@H](C)C[C@@H]2OC [FK506, reference compound]
Effect of added FK506 on the FKBP52 effect ([10]; FKpYEEI 1.0 M plus FKBP52 2.0 M plus FK506 0.25-15.0 M): the affinity enhancing effect of FKBP52 is reversed | Effect of added FK506 on the FKBP12 effect ([10]; SLFpYEEI 1.0 M plus FKBP12 2.0 M plus FK506 1.0-3.0 M): reverses the effect of reduced affinity | Effect of added FK506 on the FKBP12 effect [11]: the affinity reduction is reversed

CC(C)(S)[C@@H](N)C(=O)O [Penicillamine]
IC 50 values for a wide variety of alkaline phosphatase isoforms [12]: in the μM range

Nc1ccc(C(=O)O)c(O)c1 [para-amino salicylic acid]
IC50 [13]: 5 µM
